Values of other authors in US20240252431A1, “PULMONARY BIGUANIDE FORMULATIONS AND DELIVERY DEVICES” (Onconox Inc., priority 2021, published 2024).

Columns and labels:
[1] = system: radiation induced pneumonitis; conditions: in vivo
[2] = system: lung fibrosis elicited by bleomycin; conditions: mouse bleomycin model; treatment starting three weeks after lung injury, continuing five weeks

CN(C)C(=N)N=C(N)N [Metformin, metformin]
effect on radiation induced pneumonitis [1]: protect against radiation induced pneumonitis | effect on established lung fibrosis [2]: reverse established lung fibrosis
